Data set [1] addresses Methionine aminopeptidase 2 (Homo sapiens, UniProt P50579). In words: Inhibition of human methionine aminopeptidase 2 in presence of Mn2+.
The target of data set [2] is T1, Methionine aminopeptidase 1 (Homo sapiens, UniProt P53582). In words: Inhibition of human methionine aminopeptidase 1 in presence of Co2+.
Data set [3] addresses T1, Methionine aminopeptidase 1. In words: Inhibition of human methionine aminopeptidase 1 in presence of Mn2+.
Data set [4] has as its system HUVEC. Nature of the data set: Inhibition of methionine aminopeptidase in HUVEC assessed as accumulation of unprocessed 14-3-3gamma at 1 nM after 24 hrs by immunoblotting analysis. Format: cell-based. Particulars: Homo sapiens. On the technique in general: A western blot detects proteins with antibodies after separation by electrophoresis.
For data set [5], the system named is HUVEC. In words: Inhibition of methionine aminopeptidase in HUVEC assessed as increase in unprocessed 14-3-3gamma level at 0.1 to 10 uM by immunoblotting analysis. It counts as cell-based. Particulars: Homo sapiens.
The test system of data set [6] is HUVEC. Nature of the data set: Inhibition of methionine aminopeptidase in HUVEC assessed as increase in unprocessed 14-3-3gamma level at 0.1 to 10 uM by immunoblotting analysis in presence of cycloheximide. It counts as cell-based. To be noted: Homo sapiens.
The target of data set [7] is T1, Methionine aminopeptidase 1. In words: Inhibition of methionine aminopeptidase 1 in HEK293 cells expressing 3xFLAG-tagged BTF3 assessed as increase in [35S]-Met in solution at 100 nM after 30 mins by scintillation counting analysis. It counts as cell-based.
The test system of data set [8] is HeLa. In words: Antiproliferative activity against human HeLa cells after 30 hrs by [3H]-thymidine incorporation assay. Format: functional, cell-based.
The nature of data set [9]: Antiproliferative activity against HDFa cells after 30 hrs by [3H]-thymidine incorporation assay. Format: functional, cell-based, Homo sapiens.
Data set [10] deals with HUVEC. In words: Antiproliferative activity against HUVEC after 30 hrs by [3H]-thymidine incorporation assay. Format: functional, cell-based, Homo sapiens. (Dividing cells build labelled thymidine or BrdU into new DNA.)
The nature of data set [11]: Solubility of the compound. Format: physicochemical.
The nature of data set [12]: Antiproliferative activity against HDFa cells at 30 uM after 30 hrs by [3H]-thymidine incorporation assay relative to control. It counts as functional, Homo sapiens.
The next data set deals with HDFa. In words: Antiproliferative activity against HDFa cells at 10 uM after 30 hrs by [3H]-thymidine incorporation assay. It counts as functional, cell-based. Particulars: Homo sapiens.
Data set [13] deals with HUVEC. Nature of the data set: Cytotoxicity against HUVEC at 10 uM after 24 hrs. Format: cell-based. To be noted: human.
The test system of a further data set is MCF7. Nature of the data set: Inhibition of methionine aminopeptidase in human MCF7 cells assessed as increase in ratio of unprocessed 14-3-3gamma to total 14-3-3gamma at 0.1 uM after 24 hrs by immunoblotting analysis relative to DMSO-treated control. It counts as cell-based.
The next data set deals with PC-3. In words: Inhibition of methionine aminopeptidase in human PC3 cells assessed as increase in ratio of unprocessed 14-3-3gamma to total 14-3-3gamma at 0.1 uM after 24 hrs by immunoblotting analysis relative to DMSO-treated control. It counts as cell-based.
The target of data set [14] is T1, Methionine aminopeptidase 1. In words: Inhibition of human methionine aminopeptidase 1 up to 250 uM.
For data set [15] the target is unchanged. Nature of the data set: Inhibition of human methionine aminopeptidase 1 in presence of Zn2+.
In the next data set the test system is HEK293. In words: Inhibition of methionine aminopeptidase in HEK293 cells assessed as increase in ratio of unprocessed 14-3-3gamma to total 14-3-3gamma at 0.1 uM after 24 hrs by immunoblotting analysis relative to DMSO-treated control. It counts as cell-based. Particulars: Homo sapiens.
The test system of data set [16] is HeLa. Nature of the data set: Inhibition of methionine aminopeptidase in human HeLa cells assessed as increase in ratio of unprocessed 14-3-3gamma to total 14-3-3gamma at 0.1 uM after 24 hrs by immunoblotting analysis relative to DMSO-treated control. It counts as cell-based.
Another data set has as its system E6-1. In words: Inhibition of methionine aminopeptidase in human Jurkat E6-1 cells assessed as increase in ratio of unprocessed 14-3-3gamma to total 14-3-3gamma at 0.1 uM after 24 hrs by immunoblotting analysis relative to DMSO-treated control. Format: cell-based.
Data set [17] relates to HUVEC. Nature of the data set: Inhibition of methionine aminopeptidase in HUVEC assessed as accumulation of unprocessed 14-3-3gamma at 10 nM after 24 hrs by immunoblotting analysis. It counts as cell-based. To be noted: Homo sapiens.
Another data set is filed under the species Homo sapiens. Nature of the data set: Inhibition of methionine aminopeptidase in HUVEC assessed as increase in ratio of unprocessed 14-3-3gamma to total 14-3-3gamma at 0.1 uM after 24 hrs by immunoblotting analysis relative to control.
In data set [18] the test system is HUVEC. Nature of the data set: Antiproliferative activity against HUVEC at 30 uM after 30 hrs by [3H]-thymidine incorporation assay relative to control. It counts as functional, Homo sapiens.

In brackets after ≈: the same amount, converted by molar mass. Activity calls are given as the source filed them. The calls are words filed in the database; no cut-off is given here.

Sequence of Methionine aminopeptidase 2 (P50579 whole entry): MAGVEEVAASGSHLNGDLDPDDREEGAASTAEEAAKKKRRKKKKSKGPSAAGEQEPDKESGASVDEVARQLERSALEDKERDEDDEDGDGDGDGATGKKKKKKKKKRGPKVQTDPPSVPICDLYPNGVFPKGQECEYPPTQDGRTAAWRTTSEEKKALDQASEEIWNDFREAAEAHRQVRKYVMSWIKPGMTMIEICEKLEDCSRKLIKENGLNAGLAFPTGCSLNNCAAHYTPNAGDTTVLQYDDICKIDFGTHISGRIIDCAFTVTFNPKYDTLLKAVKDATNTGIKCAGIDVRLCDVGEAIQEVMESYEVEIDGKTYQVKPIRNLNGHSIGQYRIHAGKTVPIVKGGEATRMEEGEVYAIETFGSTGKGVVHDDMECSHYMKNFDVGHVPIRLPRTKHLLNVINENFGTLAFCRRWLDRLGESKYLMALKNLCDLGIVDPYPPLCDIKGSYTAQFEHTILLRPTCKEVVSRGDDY

On to `c1ccc(-c2cc(N3CCOCC3)c3ccccc3n2)nc1`, for which the 50% effective concentration (EC50) (usually the concentration giving half of the maximal effect) is greater than 100 µM in data set [1], 0.41 µM in data set [2] and greater than 100 µM in [3].
As to `CO[C@@H]1[C@H](OC(=O)NC(=O)CCl)CC[C@]2(CO2)[C@H]1[C@@]1(C)O[C@@H]1CC=C(C)C`, the inhibition result with HUVEC [4] and in the data set on HUVEC [5] was “Active” throughout. The inhibition entry (with HUVEC [6]; in data set [7]) was “inactive” in each case.
In the case of `CN1CCN(c2cc(-c3ccccn3)nc3ccccc23)CC1`, the EC50 is greater than 100 µM in [1], 0.87 µM in data set [2] and greater than 100 µM in data set [3].
As for `Clc1nc(-c2ccccn2)nc2ccccc12`, the results for the EC50 in [1], in data set [2] and in data set [3] were greater than 100 µM, 1.5 µM and greater than 100 µM, respectively.
`Cc1nc(-c2ccccn2)nc(NCCNc2ccc(C(F)(F)F)cn2)c1Cl`: the 50% effective concentration (EC50) in the data set on HeLa [8] (Homo sapiens, HeLa) is 10 µM; in data set [9] (Homo sapiens, HDFa), 1.9 µM; in the data set on HUVEC [10] (Homo sapiens, HUVEC) it was 4.3 µM. Also, in data set [11], the solubility – broadly, the concentration that dissolves in the medium under given conditions – was found to be 40 µM (≈ 16.4 µg/mL).
In data set [9] (Homo sapiens, HDFa), `c1ccc(-c2ccccn2)nc1` came in with a concentration giving a half-maximal response (EC50) of 10 µM. In data set [12], this compound showed an Activity of 94%. The outcome in the data set on HDFa was inactive.
On to `Cc1nc(-c2ccc(Cl)cn2)nc(NC[C@@H](NCCCCc2ccccc2)c2ccccc2)c1Cl`, for which the 50% effective concentration (EC50) in the data set on HeLa [8] (Homo sapiens, HeLa) worked out at 0.97 µM; in [9] (Homo sapiens, HDFa) it was 0.76 µM. For the same compound, the Activity entry in the data set on HUVEC [13] is listed as “Toxic”. This compound showed a solubility in data set [11] of 40 µM (≈ 20.3 µg/mL).
With `CCCCCCCCCCCCCC(=O)O[C@H]1CC[C@H](NC(=O)[C@H](OC)[C@H](O)[C@@H](O)[C@H](O)/C=C/C(C)C)C(=O)N(C)C1`, the Ratio in the data set with MCF7 amounted to 2.6; with PC-3, 2.1.
In the case of `c1ccc(NCCNc2nc(-c3ccccn3)nc3ccccc23)cc1`, the values for the EC50 in [1], in data set [2] and in [3] were greater than 300 µM, 1.6 µM and greater than 100 µM, respectively.
On the same counts, the results for `c1ccc(-c2nc(N3CCOCC3)c3ccccc3n2)nc1` are greater than 100 µM, 0.049 µM and 41 µM.
On the same counts, the results for `c1ccc(-c2cc(N3CCCCC3)c3ccccc3n2)nc1` are greater than 100 µM, 0.39 µM and greater than 100 µM.
Consider `c1ccc2[nH]c(-c3cscn3)nc2c1` [THIABENDAZOLE], for which the EC50 is greater than 250 µM in data set [9] (Homo sapiens, HDFa); greater than 250 µM in the data set with HUVEC [10] (Homo sapiens, HUVEC); 3.4 µM in data set [2]; greater than 250 µM in data set [15]; greater than 100 µM in [3]. The inhibition result in data set [14] was “inactive”.
Take `CCCCCCCCCCCCCC(=O)O[C@H]1CC[C@H](NC(=O)[C@H](OC)[C@H](O)[C@@H](O)[C@H](O)/C=C/C(C)C)C(=O)NC1`: the Ratio with HEK293 was 2.1; in the data set with HeLa [16] it was 2.3; in the data set with E6-1, 1.4; in the data set listed under Homo sapiens, 8.1. The inhibition result in the data set with HUVEC [17] and in the data set on HUVEC [5] was “Active” throughout. In the data set with HUVEC [6], the inhibition entry was “inactive”.
For `c1ccc(CCNc2nc(-c3ccccn3)nc3ccccc23)cc1`, the EC50 in [1] was greater than 100 µM; in [2], 0.94 µM; in [3], 24 µM.
`CC(C)(C)OC(=O)Nc1cccnc1C(=O)Nc1nccs1`: the concentration giving a half-maximal response (EC50) in the data set with HeLa [8] (Homo sapiens, HeLa) amounted to 2.3 µM; with HeLa [8] (hela) it was 2 µM; in [9] (Homo sapiens, HDFa), 0.79 µM; in data set [9] (hdfa), 0.65 µM; in the data set with HUVEC [10] (Homo sapiens, HUVEC), 2 µM; in the data set with HUVEC [10] (huvec), 1.5 µM.
`Cc1nc(-c2ccccn2)nc(NCCc2ccccc2)c1Cl`: the EC50 in the data set on HeLa [8] (Homo sapiens, HeLa) was found to be 7.1 µM; in [9] (Homo sapiens, HDFa), 3.6 µM; in the data set with HUVEC [10] (Homo sapiens, HUVEC), 11 µM. In addition, the Activity in the data set with HUVEC [18] is greater than 90%. In data set [11], the solubility worked out at 90 µM (≈ 29.2 µg/mL).
Consider `c1ccc(-c2nc(N3CCCCC3)c3ccccc3n2)nc1`, for which the figures for the 50% effective concentration (EC50) in [1], in data set [2] and in data set [3] were greater than 100 µM, 0.11 µM and 7.6 µM, respectively.

Source of the values: ChEMBL document CHEMBL2375230 (J Med Chem, 2013).
